Results as given in US4055553A, “(Gly3 -Ala)^1 -somatostatin” (American Home Products Corporation, priority 1975, dated 1977).

Tests used:
[1] = tested on: glucagon; assay: arginine-stimulated hormone release in Nembutal-anaesthetised rats, blood assayed for glucagon; type: in vivo, albino male rats
Method: (§1) The in vivo activity of the compounds of this invention was established by subjecting (Gly3 -Ala)^1 -Somatostatin, as a representative compound of this invention, to the following standard test procedure: three groups of nine albino male rats were arranged to provide a control group, a group for observation of Somatostatin activity as the standard and a group for the study of the test compound (Gly3 -Ala)^1 -Somatostatin. Nembutal (50 mg/kg) was injected intraperitoneally into each rat. Fifteen minutes later a subcutaneous injection of the test compound, somatostatin (200 μg/kg) and physiological saline was administered separately to each of the three groups of rats. Ten minutes later 0.5 milliliters of arginine (300 mg/ml, pH 7.2) was injected into the rats heart. The rats were decapitated five minutes later and their blood was collected in Trasylol® -EDTA. Aliquot samples were assayed for growth hormone, glucagon and/or insulin. The compound of this invention, selected as representative of the group of compounds disclosed for test pruposes, was employed in two distinct test procedures at the 100 μg/kg and 300 μg/kg dose levels.

[2] = tested on: insulin; assay: arginine-stimulated hormone release in Nembutal-anaesthetised rats, blood assayed for insulin; type: in vivo, albino male rats
Method: as §1

[3] = tested on: growth hormone; assay: arginine-stimulated hormone release in Nembutal-anaesthetised rats, blood assayed for growth hormone; type: in vivo, albino male rats; conditions: saline control 133 ± 15
Method: as §1

[4] = tested on: growth hormone, glucagon and/or insulin; assay: standard in vivo test procedure, overall activity compared with somatostatin; set-up: species or system albino male rats; conditions: at the 100 and 300 μg/kg dose levels
Method: as §1

Row | SMILES | Glucagon ([1]; first test (run beside the 100 μg/kg group), somatostatin standard 200 μg/kg subcutaneous, saline control 6.4 ± 1.5) | Glucagon ([1]; second test (run beside the 300 μg/kg group), somatostatin standard 200 μg/kg subcutaneous, saline control 4.2 ± 0.6) | Insulin ([2]; first test (run beside the 100 μg/kg group), somatostatin standard 200 μg/kg subcutaneous, saline control 199 ± 15) | Insulin ([2]; second test (run beside the 300 μg/kg group), somatostatin standard 200 μg/kg subcutaneous, saline control 165 ± 13) | GH ([3]; second test (run beside the 300 μg/kg group), somatostatin standard 200 μg/kg subcutaneous) | Glucagon ([1]; first test, test compound 100 μg/kg subcutaneous, arginine intracardiac 10 min later, blood 5 min after arginine, saline control 6.4 ± 1.5) | Glucagon ([1]; second test, test compound 300 μg/kg subcutaneous, saline control 4.2 ± 0.6) | Insulin ([2]; first test, test compound 100 μg/kg subcutaneous, arginine intracardiac 10 min later, blood 5 min after arginine, saline control 199 ± 15) | Insulin ([2]; second test, test compound 300 μg/kg subcutaneous, saline control 165 ± 13) | GH ([3]; second test, test compound 300 μg/kg subcutaneous) | activity relative to somatostatin itself [4]
1 | C[C@H](N)C(=O)NCC(=O)N[C@H]1CSSC[C@@H](C(=O)O)NC(=O)[C@H](CO)NC(=O)[C@H]([C@@H](C)O)NC(=O)[C@H](Cc2ccccc2)NC(=O)[C@H]([C@@H](C)O)NC(=O)[C@H](CCCCN)NC(=O)[C@H](Cc2c[nH]c3ccccc23)NC(=O)[C@H](Cc2ccccc2)NC(=O)[C@H](Cc2ccccc2)NC(=O)[C@H](CC(N)=O)NC(=O)[C@H](CCCCN)NC1=O [Somatostatin] | 1.5 ± 0.8 picograms/ml | 1.6 ± 0.9 picograms/ml | 202 ± 29 μ units/ml | 115 ± 11 μ units/ml | 12 ± 2 ng/mL | – | – | – | – | – | –
2 | C[C@H](NC(=O)CNC(=O)CNC(=O)CN)C(=O)NCC(=O)N[C@H]1CSSC[C@@H](C(=O)O)NC(=O)[C@H](CO)NC(=O)[C@H]([C@@H](C)O)NC(=O)[C@H](Cc2ccccc2)NC(=O)[C@H]([C@@H](C)O)NC(=O)[C@H](CCCCN)NC(=O)[C@H](Cc2c[nH]c3ccccc23)NC(=O)[C@H](Cc2ccccc2)NC(=O)[C@H](Cc2ccccc2)NC(=O)[C@H](CC(N)=O)NC(=O)[C@H](CCCCN)NC1=O [(Gly3 -Ala)^1 -Somatostatin, glycyl-glycyl-glycyl-L-alanylglycyl-L-cysteinyl-L-lysyl-L-asparaginyl-L-phenylalanyl-L-phenylalanyl-L-tryptophyl-L-lysyl-L-threonyl-L-phenylalanyl-L- threonyl-L-seryl-L-cysteine cyclic (6→.intg.) disulfide, triacetate] | – | – | – | – | – | 0.5 ± 0.1 picograms/ml | 1.4 ± 0.7 picograms/ml | 130 ± 14 μ units/ml | 104 ± 10 μ units/ml | 27 ± 7 ng/mL | comparable in activity
